Measured values from ChEMBL document CHEMBL1144636, “Quinazolinone fungal efflux pump inhibitors. Part 3: (N-methyl)piperazine variants and pharmacokinetic optimization” (Bioorg Med Chem Lett, 2007).

Legend:
Nakaseomyces glabratus = test: In vitro potentiation of fluconazole antifungal activity in Candida glabrata YEM19 assessed as 8 fold reduction in fluconazole MIC; assay type: functional
[1] = Stability in Sprague-Dawley rat hepatocyte after 24 hrs; assay type: ADME, cell-based; details: hepatocytes, read-out: Stability
Serum = test: Protein binding in Sprague-Dawley rat serum; assay type: ADME, cell-free; design: concentration or dose not given beside the values
Candida albicans = test: In vitro potentiation of fluconazole antifungal activity in Candida albicans YEM15 assessed as 8 fold reduction in fluconazole MIC; assay type: functional
[2] = Total clearance in Sprague-Dawley rat at 5 mg/kg, iv; assay type: ADME, organism-based; design: dose 5 mg/kg, route intravenous; details: in vivo

SMILES | Activity (Nakaseomyces glabratus) [µg/mL] | remaining at 24 h [1] [%] | Activity (Serum) [%] | Activity (Candida albicans) [µg/mL] | clearance [2] [mL/min/kg]
COc1ccc(N(C(=O)Nc2ccc(F)cc2)C(C)c2nc3ccccc3c(=O)n2N2CCN(C)CC2)c(OC)c1 (configuration not stated) | 4 | 18 | 74 | 4 | –
CNCC(=O)N1CCN(n2c(C(C)N(C(=O)Nc3ccc(F)cc3)c3ccc(OC)cc3OC)nc3ccccc3c2=O)CC1 (configuration not stated) | 4 | – | – | >32 | –
COc1ccc(N(C(=O)Nc2ccc(F)cc2)C(C)c2nc3ccccc3c(=O)n2N2CCN(C=O)CC2)c(OC)c1 (configuration not stated) | 4 | – | – | 2 | –
COc1ccc(N(C(=O)Nc2ccc(F)cc2)C(C)c2nc3ccccc3c(=O)n2N2CCN(C(=O)[C@H]3CCCN3)CC2)c(OC)c1 (some centres not stated) | 2 | – | – | >32 | –
COC(=O)N[C@@H]1CCN(C(=O)N2CCN(n3c(C(C)N(C(=O)Nc4ccc(F)cc4)c4ccc(OC)cc4OC)nc4ccccc4c3=O)CC2)C1 (some centres not stated) | 0.5 | 4 | – | 0.25 | –
COc1ccc(N(C(=O)Nc2ccc(F)cc2)C(C)c2nc3ccccc3c(=O)n2N2CCNCC2)c(OC)c1 (configuration not stated) | 32 | – | – | >32 | –
COc1ccc(N(C(=O)Nc2ccc(F)cc2)C(C)c2nc3ccccc3c(=O)n2N2CCCCC2)c(OC)c1 (configuration not stated) | >32 | – | – | >32 | –
COC(=O)NCC(=O)N1CCN(n2c(C(C)N(C(=O)Nc3ccc(F)cc3)c3ccc(OC)cc3OC)nc3ccccc3c2=O)CC1 (configuration not stated) | 2 | – | – | >32 | –
COC(=O)N[C@@H](C)C(=O)N1CCN(n2c([C@H](C)N(C(=O)Nc3ccc(F)cc3)c3ccc(OC)cc3OC)nc3cc(F)ccc3c2=O)CC1 | 0.0625 | – | 87 | 0.5 | 125
COc1ccc(N(C(=O)Nc2ccc(F)cc2)C(C)c2nc3ccccc3c(=O)n2N2CCN(C(=O)C3CCCC3)CC2)c(OC)c1 (configuration not stated) | 0.125 | – | – | 0.25 | –
COC(=O)N[C@H](C)C(=O)N1CCN(n2c(C(C)N(C(=O)Nc3ccc(F)cc3)c3ccc(OC)cc3OC)nc3ccccc3c2=O)CC1 (some centres not stated) | 0.5 | 7 | 82 | 4 | –
COc1ccc(N(C(=O)Nc2cccc(Cl)c2)C(C)c2nc3ccccc3c(=O)n2N2CCN(C)CC2)c(OC)c1 (configuration not stated) | 4 | – | 98 | 1 | 83.3
COc1ccc(N(C(=O)Nc2ccc(F)cc2)C(C)c2nc3ccccc3c(=O)n2N2CCN(C(=O)[C@@H]3CCCN3)CC2)c(OC)c1 (some centres not stated) | 4 | 77 | 77 | >32 | –
COc1ccc(N(C(=O)Nc2ccc(F)cc2)C(C)c2nc3ccccc3c(=O)n2N2CCN(C(=O)C3CCCO3)CC2)c(OC)c1 (configuration not stated) | 0.125 | – | – | 0.5 | –
COc1ccc(N(C(=O)Nc2ccc(F)cc2)C(C)c2nc3ccccc3c(=O)n2N2CCN(C(=O)[C@@H]3CCCN3C)CC2)c(OC)c1 (some centres not stated) | 2 | – | – | 32 | –
COc1ccc(N(C(=O)Nc2ccc(F)cc2)C(C)c2nc3ccccc3c(=O)n2N2CCN(C(=O)N3CCCC3)CC2)c(OC)c1 (configuration not stated) | <0.03 | 0 | – | 0.0625 | –

SMILES | Activity (Nakaseomyces glabratus) [µg/mL] | remaining at 24 h [1] [%] | Activity (Serum) [%] | Activity (Candida albicans) [µg/mL] | clearance [2] [mL/min/kg]
COC(=O)N(C)[C@@H](C)C(=O)N1CCN(n2c(C(C)N(C(=O)Nc3ccc(F)cc3)c3ccc(OC)cc3OC)nc3ccccc3c2=O)CC1 (some centres not stated) | 0.5 | – | – | 0.5 | –
COC(=O)N[C@@H](C)C(=O)N1CCN(n2c(C(C)N(C(=O)Nc3ccc(F)cc3)c3ccc(OC)cc3OC)nc3ccccc3c2=O)CC1 (some centres not stated) | 0.25 | 39 | 82 | 2 | –
COC(=O)N[C@@H](CO)C(=O)N1CCN(n2c(C(C)N(C(=O)Nc3ccc(F)cc3)c3ccc(OC)cc3OC)nc3ccccc3c2=O)CC1 (some centres not stated) | 8 | – | – | 32 | –
COC(=O)N[C@H](C(=O)N1CCN(n2c(C(C)N(C(=O)Nc3ccc(F)cc3)c3ccc(OC)cc3OC)nc3ccccc3c2=O)CC1)[C@H](C)O (some centres not stated) | 2 | – | – | 2 | –
COc1ccc(N(C(=O)Nc2ccc(F)cc2)C(C)c2nc3ccccc3c(=O)n2N2CCN(C[C@@H]3CCCN3)CC2)c(OC)c1 (some centres not stated) | 2 | – | – | 32 | –
COC(=O)N[C@H]1CCN(C(=O)N2CCN(n3c(C(C)N(C(=O)Nc4ccc(F)cc4)c4ccc(OC)cc4OC)nc4ccccc4c3=O)CC2)C1 (some centres not stated) | 0.25 | 23 | – | 4 | –
CCOC(=O)N1CCN(n2c(C(C)N(C(=O)Nc3ccc(F)cc3)c3ccc(OC)cc3OC)nc3ccccc3c2=O)CC1 (configuration not stated) | 0.5 | – | – | 0.25 | –
CCNC(=O)N1CCN(n2c(C(C)N(C(=O)Nc3ccc(F)cc3)c3ccc(OC)cc3OC)nc3ccccc3c2=O)CC1 (configuration not stated) | 1 | – | – | 1 | –
COc1ccc(N(C(=O)Nc2ccc(F)cc2)C(C)c2nc3ccccc3c(=O)n2N2CCN(C(N)=O)CC2)c(OC)c1 (configuration not stated) | 16 | – | – | 8 | –
COc1ccc(N(C(=O)Nc2ccc(F)cc2)C(C)c2nc3ccccc3c(=O)n2N2CCN(C(=O)[C@@H]3CCCN3C3CC3)CC2)c(OC)c1 (some centres not stated) | 0.25 | – | – | 1 | –
COc1ccc(N(C(=O)Nc2ccc(F)cc2)C(C)c2nc3ccccc3c(=O)n2N2CCN(C(=O)[C@H](C)N3CCCC3)CC2)c(OC)c1 (some centres not stated) | 0.25 | – | – | 8 | –
COc1ccc(N(C(=O)Nc2ccc(F)cc2)C(C)c2nc3ccccc3c(=O)n2N2CCN(C(=O)CN3CCCC3)CC2)c(OC)c1 (configuration not stated) | 1 | – | – | 4 | –
COc1ccc(N(C(=O)Nc2ccc(F)cc2)C(C)c2nc3ccccc3c(=O)n2N2CCN(C(=O)C[C@@H]3CCCN3)CC2)c(OC)c1 (some centres not stated) | 0.5 | – | – | >32 | –
COC(=O)N[C@H](C(=O)N1CCN(n2c(C(C)N(C(=O)Nc3ccc(F)cc3)c3ccc(OC)cc3OC)nc3ccccc3c2=O)CC1)C(C)C (some centres not stated) | 2 | – | – | 1 | –
COc1ccc(N(C(=O)Nc2ccc(F)cc2)C(C)c2nc3ccccc3c(=O)n2N2CCN(C(=O)[C@H](C)N)CC2)c(OC)c1 (some centres not stated) | 4 | – | – | >32 | –
